Experimental data as given in US8058475B2, “Substituted cyclohexylmethyl compounds” (Gruenenthal GmbH, priority 2005, dated 2011).
Where two headings read alike, the source gives them in different places.

Target: human μ-opiate receptor (Homo sapiens, UniProt P35372)
Experiment: Affinity for the human μ-opiate receptor ([3H]-naloxone displacement, SPA, CHO-K1 membrane preparation)
Assay type: binding
Settings: for inhibition at 1 µM: read-out: μ-Opioid receptor, % inhibition [1 μM]; for Ki: read-out: μ-Opioid receptor, Ki

human μ-opiate receptor, sequence (P35372 whole entry): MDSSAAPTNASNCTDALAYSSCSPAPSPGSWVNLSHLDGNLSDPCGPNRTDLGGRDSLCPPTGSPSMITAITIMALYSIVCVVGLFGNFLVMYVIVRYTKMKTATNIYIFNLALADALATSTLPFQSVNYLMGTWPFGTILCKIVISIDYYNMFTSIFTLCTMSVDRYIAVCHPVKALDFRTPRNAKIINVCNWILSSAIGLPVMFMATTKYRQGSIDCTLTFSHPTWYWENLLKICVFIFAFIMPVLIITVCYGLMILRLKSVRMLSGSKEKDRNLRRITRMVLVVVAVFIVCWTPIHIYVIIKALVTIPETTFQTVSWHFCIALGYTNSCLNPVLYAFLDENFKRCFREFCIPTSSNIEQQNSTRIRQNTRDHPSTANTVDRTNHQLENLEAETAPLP

SMILES | inhibition at 1 µM (1 μM test substance, inhibition of specific [3H]-naloxone binding) [%] | inhibition at 1 µM [%] | Ki [nM] | μ-Opioid receptor, % inhibition [1 μM] [%]
CN(C)C(c1ccc(Cl)cc1)C1CCC(O)(c2ccc(F)cc2)CC1 (centres unmarked) [compound 162, 4-[(4-chloro-phenyl)-dimethylamino-methyl]-1-(4-fluoro-phenyl)-cyclohexanol] | 59 |  |  | 
COc1c(C(=O)NC2CCC(C(c3cccs3)N(C)C)CC2)csc1Cl (centres unmarked) [compound 195, 5-chloro-4-methoxy-thiophene-3-carboxylic acid [4-(dimethylamino-thiophen-2-yl-methyl)-cyclohexyl]-amide] |  | 96 | 15 | 
CN(C)C(c1ccccc1)C1CCC(NC(=O)c2cccc(Cl)c2)CC1 (centres unmarked) [compound 187, 3-chloro-N-[4-(dimethylamino-phenyl-methyl)-cyclohexyl]-benzamide] |  | 100 | 8.5 | 
CN(C)C(c1cccc(F)c1)C1CCC(CCNC(=O)c2c(F)cccc2F)CC1 (centres unmarked) [compound 462, N-(2-{4-[dimethylamino-(3-fluoro-phenyl)-methyl]-cyclohexyl}-ethyl)-2,6-difluoro-benzamide] |  | 91 | 55 | 
Cc1ccccc1C(=O)NCCC1CCC(C(c2ccc(Cl)cc2)N(C)C)CC1 (centres unmarked) [compound 419, N-(2-{4-[(4-chloro-phenyl)-dimethylamino-methyl]-cyclohexyl}-ethyl)-2-methyl-benzamide] |  | 86 | 32 | 
Cc1cccc(C(=O)NC2CCC(C(CCc3ccccc3)N(C)C)CC2)c1 (centres unmarked) [compound 248, N-[4-(1-dimethylamino-3-phenyl-propyl)-cyclohexyl]-3-methyl-benzamide] |  | 81 | 88 | 
CCC(C)C(=O)NCC1CCC(C(c2cccc(F)c2)N(C)C)CC1 (single isomer, unassigned) [compound 378, N-{4-[dimethylamino-(3-fluoro-phenyl)-methyl]-cyclohexylmethyl}-2-methyl-butyramide] |  |  | 55 | 83
CN(C)C(c1cccs1)C1CCC(CCNC(=O)c2ccccc2Cl)CC1 (centres unmarked) [compound 425, 2-chloro-N-{2-[4-(dimethylamino-thiophen-2-yl-methyl)-cyclohexyl]-ethyl}-benzamide] |  | 94 | 6 | 
COc1ccccc1C(=O)NCCC1CCC(C(c2cccc(F)c2)N(C)C)CC1 (centres unmarked) [compound 415, N-(2-{4-[dimethylamino-(3-fluoro-phenyl)-methyl]-cyclohexyl}-ethyl)-2-methoxy-benzamide] |  | 99 | 5.1 | 
Cc1cc(C(=O)NCC2CCC(C(c3ccccc3)N(C)C)CC2)no1 (centres unmarked) [compound 379, 5-methyl-isoxazole-3-carboxylic acid [4-(dimethylamino-phenyl-methyl)-cyclohexylmethyl]-amide] |  | 83 |  | 
Cc1ccccc1C(=O)NCCC1CCC(C(c2ccccc2)N(C)C)CC1 (single isomer, unassigned) [compound 418, N-{2-[4-(dimethylamino-phenyl-methyl)-cyclohexyl]-ethyl}-2-methyl-benzamide] |  |  | 43 | 92
CN(C)C(c1cccc(F)c1)C1CCC(CNC(=O)c2cccs2)CC1 (single isomer, unassigned) [compound 334, thiophene-2-carboxylic acid {4-[dimethylamino-(3-fluoro-phenyl)-methyl]-cyclohexylmethyl}-amide] |  | 92 | 62 | 
CN(C)C(c1cccs1)C1CCC(NC(=O)c2ccc(F)c(C(F)(F)F)c2)CC1 (centres unmarked) [compound 192, N-[4-(dimethylamino-thiophen-2-yl-methyl)-cyclohexyl]-4-fluoro-3-trifluoromethyl-benzamide] |  | 98 | 18 | 
CN(C)C(c1cccc(F)c1)C1CCC(CCNC(=O)c2ccccc2Br)CC1 (centres unmarked) [compound 396, 2-bromo-N-(2-{4-[dimethylamino-(3-fluoro-phenyl)-methyl]-cyclohexyl}-ethyl)-benzamide] |  | 97 | 12 | 
